Reference: PubChem BioAssay AID248 (DTP/NCI, 2004)
Where “and” joins values, the source holds several entries; their conditions need not be identical. Equal entries are not always repeated. Toxic doses and inconclusive results are not listed. No stated cut-off is given here; in the data, active means T/C of 150% or more; inactive means T/C below 125%.

Test system: L1210 leukemia ip in BDF1 mice, survival T/C
Assay: NCI In Vivo Anticancer Drug Screen. Data for tumor model L1210 Leukemia (intraperitoneal) in B6D2F1 (BDF1) mice
Details: endpoint: mean survival time, higher = longer survival
Method in brief: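 Tumor was transplanted into mice, which were then dosed with test compound or vehicle alone. Survival was recorded for each group, and the treated figure was expressed relative to the control figure.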

[1] = dose: 100.0 mg/kg/injection, schedule: Q01DX009 (ip), vehicle: saline
[2] = dose: 100.0 mg/kg/injection, schedule: Q04DX003 (ip), vehicle: saline
[3] = dose: 200.0 mg/kg/injection, schedule: Q01DX009 (ip), vehicle: saline
[4] = dose: 200.0 mg/kg/injection, schedule: Q04DX003 (ip), vehicle: saline
[5] = dose: 400.0 mg/kg/injection, schedule: Q01DX009 (ip), vehicle: saline
[6] = dose: 400.0 mg/kg/injection, schedule: Q04DX003 (ip), vehicle: saline

Measured: T/C

C[Si](C)(C)O[Si](C)(C)c1ccccc1
inactive: dose: 50.0 mg/kg/injection, schedule: Q01DX009 (ip), vehicle: saline 102 % of control | [1] 88 % of control | [2] 103 % of control | [3] 99 % of control | [4] 109 % of control | [5] 96 % of control | [6] 95 % of control

CC(C)(C)OC(=O)C1OC1(C)c1ccccc1 (centres undefined)
inactive: dose: 75.0 mg/kg/injection, schedule: Q01DX001 (ip), vehicle: other 106 % of control | dose: 150.0 mg/kg/injection, schedule: Q01DX001 (ip), vehicle: other 107 % of control | dose: 300.0 mg/kg/injection, schedule: Q01DX001 (ip), vehicle: other 98 % of control

N#CC(C(=O)Nc1cccc(C(F)(F)F)c1)C(=S)Nc1ccccc1Cl (centres undefined)
inactive: dose: 25.0 mg/kg/injection, schedule: Q04DX002 (ip), vehicle: saline with Tween-80 102 % of control | dose: 50.0 mg/kg/injection, schedule: Q04DX002 (ip), vehicle: saline with Tween-80 105 % of control | dose: 100.0 mg/kg/injection, schedule: Q04DX002 (ip), vehicle: saline with Tween-80 101 % of control and 105 % of control

CCCCCCCCCCCCCCCCCC(=O)NCC[N+](C)(C)C
inactive: dose: 5.0 mg/kg/injection, schedule: Q01DX001 (ip), vehicle: saline 98 % of control | dose: 10.0 mg/kg/injection, schedule: Q01DX001 (ip), vehicle: saline 96 % of control | dose: 20.0 mg/kg/injection, schedule: Q01DX001 (ip), vehicle: saline 98 % of control | dose: 40.0 mg/kg/injection, schedule: Q01DX001 (ip), vehicle: saline 93 % of control | dose: 80.0 mg/kg/injection, schedule: Q01DX001 (ip), vehicle: saline 102 % of control

NP1(N)=NP(N)(N)=NP(N)(N)=N1
inactive: dose: 100.0 mg/kg/injection, schedule: Q04DX002 (ip), vehicle: saline 90 % of control | dose: 200.0 mg/kg/injection, schedule: Q04DX002 (ip), vehicle: saline 93 % of control | dose: 400.0 mg/kg/injection, schedule: Q04DX002 (ip), vehicle: saline 97 % of control

CC(=O)OC1C=CCc2c(O)c3c(c(O)c21)C(=O)c1ccccc1C3=O (centres undefined)
inactive: [1] 91 % of control | [2] 90 % of control | [3] 109 % of control | [4] 88 % of control | [5] 103 % of control | [6] 91 % of control

NC(=O)C1C(=O)c2cccc3c2C1(Br)C(Br)CCC3 (centres undefined)
inactive: dose: 100.0 mg/kg/injection, schedule: Q01DX001 (ip), vehicle: saline 93 % of control

c1ccc2c(c1)Cc1nc3ccccc3nc1-2
inactive: dose: 25.0 mg/kg/injection, schedule: Q01DX009 (ip), vehicle: water 93 % of control | dose: 50.0 mg/kg/injection, schedule: Q01DX009 (ip), vehicle: water 91 % of control | dose: 100.0 mg/kg/injection, schedule: Q01DX009 (ip), vehicle: water 101 % of control | dose: 200.0 mg/kg/injection, schedule: Q01DX009 (ip), vehicle: water 93 % of control | dose: 400.0 mg/kg/injection, schedule: Q01DX009 (ip), vehicle: water 96 % of control

c1ccc(-c2nnc(-c3ccc4ccc5cccnc5c4n3)nc2-c2ccccc2)cc1
inactive: dose: 100.0 mg/kg/injection, schedule: Q04DX003 (ip), vehicle: saline with Tween-80 93 % of control | dose: 200.0 mg/kg/injection, schedule: Q04DX003 (ip), vehicle: saline with Tween-80 104 % of control | dose: 400.0 mg/kg/injection, schedule: Q04DX003 (ip), vehicle: saline with Tween-80 104 % of control

CC(=O)CC(=O)Nc1ccc(C(=O)O)c(O)c1
inactive: dose: 100.0 mg/kg/injection, schedule: Q01DX009 (ip), vehicle: Klucel (hydroxypropylcellulose) (HPC) 93 % of control | dose: 200.0 mg/kg/injection, schedule: Q01DX009 (ip), vehicle: Klucel (hydroxypropylcellulose) (HPC) 87 % of control | dose: 400.0 mg/kg/injection, schedule: Q01DX009 (ip), vehicle: Klucel (hydroxypropylcellulose) (HPC) 93 % of control
